Consider one compound from patent US10966911B2, “Melanin decomposition inhibitor” (KAO CORPORATION, priority 2016, dated 2021).

In data set [1] the test system is dopa oxidase activity of melanocytes. Kind of data set: Dopa oxidase activity of melanocytes in keratinocyte-melanocyte co-culture system. It is filed as cell-based, human. To be noted: melanocytes (lightly and darkly), proguanil 0.1-1000 μM, 4 days, versus DMSO, FIGS. 16A, 16B. As for the experimental part:
Melanocytes (lightly and darkly) were seeded in 96-well plates at a cell density of 2×10^4 cells/well (100 μL/well). […] Two days later, proguanil was added at a final concentration of 0.1, 0.3, 1, 3, 10, 30, 100, 300 or 1000 μM and culture was performed at 37° C. in 5 vol % CO2 atmospheric conditions for 4 days. As a control, the same amount of DMSO was added. After completion of culture, the whole medium was replaced (100 μL/well), a reagent, alamarBlue (Bio-Rad AbD Serotec Limited) was added so as to obtain a ratio of 10 μL/well. Incubation was carried out at 37° C. in 5 vol % CO2 atmospheric conditions for one hour. Thereafter, fluorescence intensity of the medium was measured (Ex544 nm/Em590 nm) to evaluate cellular respiratory chain (growth) activity. […] The cells were lysed at 4° C. over 2 hours and dopa oxidase activity was measured. The activity measurement was performed by the following method based on the […] method (Winder A. et al., 1991, Eur. J. Biochem. 198: 317-326): to individual wells containing a cell lysate, the Assay Buffer (80 μL) as mentioned above, an aqueous 20.7 mM MBTH (3-methyl-2-benzothiazolinone hydrazone) solution (60 μL) and an aqueous 5 mM L-DOPA (L-dihydroxyphenylalanine) (40 μL) solution serving as a substrate were added, a reaction was performed at 37° C. for 30 minutes and the absorbance at a wavelength of 505 nm was measured. […]

Data set [2] deals with keratinocytes and melanocytes. Kind of data set: Cellular respiratory chain (growth) activity in keratinocyte-melanocyte co-culture system. It is filed as cell-based, human. The conditions noted are these: concentration range of 30 μM or less, 4 days, FIGS. 16C, 16D.
From the text: Normal human neonatal foreskin-derived epidermal keratinocytes (Human Epidermal Keratinocytes, neonatal (HEKn) lightly; keratinocytes) and growth medium (Epilife) for epidermal keratinocytes were purchased from Thermo Fisher Scientific. Growth additives (Humedia-KG) for a medium were purchased from Kurabo Industries Ltd. Normal human neonatal foreskin-derived epidermal melanocytes (Human Epidermal Melanocytes, neonatal, lightly pigmented donor (HEMn-LP) and Human Epidermal Melanocytes, neonatal, darkly pigmented donor (HEMn-DP); melanocytes (lightly) and melanocytes (darkly)) were purchased from Thermo Fisher Scientific. Keratinocytes and melanocytes were cultured at 37° C. in 5 vol % CO2 atmospheric conditions.
Keratinocytes were seeded in a 96-well plate at a cell density of 1×10^4 cells/well (100 μL/well). On the following day, melanocytes (lightly and darkly) were seeded at a cell density of 2×10^4 cells/well (100 μL/well). […] Culture was performed at 37° C. in a 5 vol % CO2 atmospheric conditions for 4 days. As a test medium at this time, Epilife was used, which contained Humedia-KG growth additive (insulin, hydrocortisone, BPE, gentamicin and amphotericin B) except a Human Epidermal Growth Factor (hEGF). […] After completion of culture, cellular respiratory chain (growth) activity and dopa oxidase activity were evaluated in the same manner as in Example 11.

As to `[H]/N=C(\N/C(=N/[H])Nc1ccc(Cl)cc1)NC(C)C` [proguanil, 1-(p-chlorophenyl)-5-isopropyl biguanide], the dopa oxidase activity entry in data set [1] is given as “does not accelerate dopa oxidase activity”. Further, the “cell toxicity (cellular respiratory chain activity)” value in data set [2] is given as “cell toxicity was not observed”.
